This note sets out measurements from patent US6787560B2, “Serotonin reuptake inhibitor” (Sumitomo Pharmaceuticals Company Limited, priority 2000, dated 2004).

Test [1] has as its target T1, [3H]citalopram binding site, cerebral cortex membrane preparation (serotonin reuptake) (Rattus norvegicus, UniProt P31652).
T1 construct: 146 μl of the cerebral cortex membrane preparation (72 μg/well in terms of protein); from tissue; host or cells: male rat cerebral cortex membrane preparation
In words: Screening test using [3H]citalopram binding (Test Example 1). Particulars: 0.7 nM [3H]citalopram, test agent concentration not given, read-out: Rate of inhibition of [^3H] citalopram binding (%). The protocol:
Screening Test Using [^3H[Citalopram Binding
1-1. Preparation of a Cerebral Cortex Membrane Preparation
The membrane preparation was prepared according to the method^1) of D'amato et al. In detail, after a male rat was decapitated, the whole brain was immediately removed and the cerebral cortex was separated therefrom under ice-cooling. A buffer solution (50 mM Tris-HCl (pH=7.4), 120 mM NaCl, 5 mM KCl) was added to the cerebral cortex in an amount of 2.5 times the wet weight of the cerebral cortex, followed by homogenization in an ice bath by the use of a Teflon-glass homogenizer. The homogenate was centrifuged at 4° C. and 45,000×g for 10 minutes, and the resulting precipitate was dispersed in an ice-cooled buffer solution (50 mM Tris-HCl (pH=7.4), 120 mM NaCl, 5 mM KCl) by the use of Hiscotron™, followed by centrifugation at 4° C. and 45,000×g for 10 minutes. The resulting precipitate was re-suspended and the washing procedure was repeated. The membrane preparation thus obtained was suspended in the same buffer solution as described above, and then subjected to cryopreservation at −80° C.
1-2 Receptor Binding Experiment
[^3H]citalopram binding was measured according to the method^1) of D'amato et al. In detail, 50 μl of a dilution (final concentration: 0.7 nM) of [^3H]citalopram with 50 mM Tris-HCl (pH=7.4) buffer containing 120 mM NaCl and 5 mM KCl, 146 μl of the cerebral cortex membrane preparation (72 μg/well in terms of protein) and 4 μl of a solution of a test agent in dimethyl sulfoxide were mixed to make a total volume of 200 μl. The resulting liquid was allowed to react at room temperature for 60 minutes and then rapidly filtered by suction at a low pressure through glass fiber filter paper. The glass fiber filter paper was washed twice with 250 μl of the same buffer solution as above and then transferred to a glass vial containing 4 ml of ACS-II (Amersham), and the radio-activity remaining on the filter paper was measured with a liquid scintillation counter.
The amount of [^3H]citalopram bound in the presence of 100 μM 5-HT was taken as the amount of [^3H]citalopram non-specifically bound.
(§1) Rate of binding inhibition was calculated by the following equation:
Rate of binding inhibition (%)=100−100×{[amount of [^3H]citalopram bound in the presence of test agent]−[amount of [^3H]citalopram bound in the presence of 100 μM 5-HT]/[amount of [^3H]citalopram bound in the absence of test agent]−[amount of [^3H]citalopram bound in the presence of 100 μM 5-HT]}

Test [2] addresses T2, serotonin 1A receptors ([3H]8-OH-DPAT binding, hippocampus membrane preparation) (Rattus norvegicus, UniProt P19327).
T2 construct: 146 μl of the hippocampus membrane preparation (80 μg/tube in terms of protein); from tissue; host or cells: male rat hippocampus membrane preparation
T2 sequence (P19327 1-422): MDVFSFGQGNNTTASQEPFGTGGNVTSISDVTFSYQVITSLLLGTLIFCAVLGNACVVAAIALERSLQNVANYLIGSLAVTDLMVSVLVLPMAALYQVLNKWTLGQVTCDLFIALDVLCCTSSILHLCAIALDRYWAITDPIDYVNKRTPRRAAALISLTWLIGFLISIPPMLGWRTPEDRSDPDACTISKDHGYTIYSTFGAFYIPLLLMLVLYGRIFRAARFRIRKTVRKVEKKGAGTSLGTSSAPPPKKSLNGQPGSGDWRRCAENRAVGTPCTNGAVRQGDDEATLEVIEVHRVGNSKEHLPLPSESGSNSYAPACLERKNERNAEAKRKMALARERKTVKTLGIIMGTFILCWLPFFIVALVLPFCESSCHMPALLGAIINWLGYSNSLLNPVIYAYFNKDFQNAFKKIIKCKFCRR
In words: [3H]8-OH-DPAT binding test (Test Example 2). Particulars: 2 nM [3H]8-OH-DPAT, test agent concentration not given, read-out: Rate of inhibition of [^3H] 8-OH-DPAT binding (%). As for the experimental part: [^3H]18-OH-DPAT Binding Test
The test was carried out according to the method^2) of Hall M. D. et al. After pre-breeding for about 1 week, a male rat was decapitated and the brain was immediately removed. The hippocampus was separated from the brain on ice, and 50 mM Tris-HCl (pH=7.4) was added to the hippocampus in an amount of 40 times the wet weight of the hippocampus, followed by homogenization (3 min, 1 stroke/min) in an ice bath by the use of a Teflon-glass homogenizer. Then, the homogenate was centrifuged (4° C.) at 40,000×g for 10 minutes. The resulting precipitate was dispersed in an ice-cooled buffer solution (50 mM Tris-HCl (pH=7.4)) by the use of Hiscotron, followed by centrifugation (4° C.) at 40,000×g for 10 minutes. Moreover, the resulting precipitate was re-suspended and the washing procedure was repeated once. The precipitate thus obtained was dispersed in an ice-cooled buffer solution (50 mM Tris-HCl (pH=7.4)) by the use of Hiscotron™, and the resulting dispersion was incubated at 37° C. for 1 hour and then centrifuged (4° C.) at 40,000×g for 10 minutes. Furthermore, the resulting precipitate was re-suspended and the washing procedure was repeated once. The resulting membrane preparation was suspended in the same buffer solution as described above, and then subjected to cryopreservation at −80° C.
Measurement was carried out by using a liquid for reaction obtained by adding 50 μl of [^3H]8-OH-DPAT (final concentration: 2 nM), 4 μl of a solution of a test agent and 146 μl of the hippocampus membrane preparation (80 μg/tube in terms of protein) to a buffer solution containing 50 mM Tris-HCl (pH=7.4) and 4 mM CaCl2 to make a total volume of 200 μl. The liquid for reaction was allowed to react at room temperature for 30 minutes and then rapidly filtered by suction at a low pressure through glass fiber filter paper. The glass fiber filter paper was washed twice with 250 μl of a buffer solution and then added to a glass vial containing 4 ml of ACS-II (Amersham), and the radioactivity bound to receptors and remaining on the filter paper was measured with a liquid scintillation counter. The amount of [^3H]8-OH-DPAT bound in the presence of 1 μM of 8-OH-DPAT was taken as the amount of [^3H]8-OH-DPAT non-specifically bound.
as §1
Rate of binding inhibition (%)=100−100×{[amount of [^3H]8-OH-DPAT bound in the presence of test substance]−[amount of [^3H]8-OH-DPAT bound in the presence of 1 μM 8-OH-DPAT]/[amount of [^3H]8-OH-DPAT bound in the absence of test substance]−[amount of [^3H]8-OH-DPAT bound in the presence of 1 μM 8-OH-DPAT]}

For test [3], the target named is T3, human 5-HT1A receptors (human 5-HT1A/CHO membrane preparation) (Homo sapiens, UniProt P08908).
T3 construct: expressed in transfected cells; host or cells: CHO cells (human 5-HT1A/CHO), Geneticin-selected
T3 sequence (P08908 1-422): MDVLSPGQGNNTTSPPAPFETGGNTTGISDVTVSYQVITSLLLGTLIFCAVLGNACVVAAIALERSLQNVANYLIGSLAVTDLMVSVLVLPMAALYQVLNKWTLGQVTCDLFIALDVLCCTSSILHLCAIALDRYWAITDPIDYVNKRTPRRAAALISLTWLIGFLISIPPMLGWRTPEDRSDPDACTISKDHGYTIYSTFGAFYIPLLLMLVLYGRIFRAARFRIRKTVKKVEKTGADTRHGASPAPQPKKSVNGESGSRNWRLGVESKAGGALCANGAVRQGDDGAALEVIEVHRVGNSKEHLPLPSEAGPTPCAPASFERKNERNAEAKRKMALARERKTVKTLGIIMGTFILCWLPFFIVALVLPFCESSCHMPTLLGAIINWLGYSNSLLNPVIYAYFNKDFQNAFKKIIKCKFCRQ
In words: 5-HT1A receptor actuation test, [35S]GTPγS binding (Test Example 3). The test is classed as biochemical. Particulars: 10^-5 M test substance; rate of increase in [35S]GTPγS binding, increase due to 10 μM 5-HT taken as 100%. The protocol:
5-HT1A Receptor Actuation Test
3-1. Cells Used and Preparation of a Membrane Preparation
Human ^5-HT1A receptor expression CHO cells (human 5-HT1A/CHO) were used in the experiment. The cells were cultured on F12 containing 10% FCS, 500 μg/ml Geneticin and 100 U/ml penicillin-100 μg/ml streptomycin (all available from GIBCO) in a 5% CO2 incubator, and a membrane preparation was prepared according to the method^3) of A. Newman et al. In detail, cells peeled and collected by the use of buffer solution A (20 mM HEPES, 5 mM MgSO4) were homogenized in a Teflon homogenizer, followed by centrifugation (50,000×g, 30 min, 4° C.). The precipitate was re-suspended in a suitable volume of buffer solution A and stored at −80° C. until use The amount of proteins in the membrane preparation was determined with Dye Reagent Concentrate (BIO-RAD) by using Albumin Bovine (SIGMA) as a standard substance.
Binding of [^35S]GTPγS to human 5-HT1A receptors was measured by the use of the above-mentioned membrane preparation according to the method^3) of Newman et al. In detail, 0.05 nM of [^35S]GTPγS (E. I. du Pont de Nemours & Co. NEN) and a definite amount (about 50 μg/tube) of the membrane preparation were added to buffer solution B (20 mM HEPES, 3 mM MgSO4, 3 μM GDP, 1 mM DTT) containing 10^−5M of each test substance, and the resulting liquid for reaction having a total volume of 1 ml was incubated at 22° C. for 20 minutes. After completion of the reaction, the reaction mixture was diluted with 5 ml of ice-cooled buffer solution B, and the dilution was rapidly filtered by suction at a low pressure through glass fiber filter paper (Whatman, GF/B) to terminate the reaction. The glass fiber filter paper was washed twice with the same buffer solution as above and placed in a vial, and 4 ml of ACS-II was added thereto. The radioactivity of [^35S]GTPγS on the filter paper was measured with a liquid scintillation counter. The amount of [^35S]GTPγS specifically bound was calculated from the amount of [^35S]GTPγS non-specifically bound in the presence of 10 μM of GTPγS (Sigma). The 5-HTLA receptor actuating activity of each test substance was expressed in terms of the rate of increase in [^35S]GTPγS binding by taking an increase in [^35S]GTPγS binding due to 10 μM of 5-HT as 100%.
(In general: Binding of GTPγS marks nucleotide exchange on a G protein.)

T1 sequence (P31652 whole entry): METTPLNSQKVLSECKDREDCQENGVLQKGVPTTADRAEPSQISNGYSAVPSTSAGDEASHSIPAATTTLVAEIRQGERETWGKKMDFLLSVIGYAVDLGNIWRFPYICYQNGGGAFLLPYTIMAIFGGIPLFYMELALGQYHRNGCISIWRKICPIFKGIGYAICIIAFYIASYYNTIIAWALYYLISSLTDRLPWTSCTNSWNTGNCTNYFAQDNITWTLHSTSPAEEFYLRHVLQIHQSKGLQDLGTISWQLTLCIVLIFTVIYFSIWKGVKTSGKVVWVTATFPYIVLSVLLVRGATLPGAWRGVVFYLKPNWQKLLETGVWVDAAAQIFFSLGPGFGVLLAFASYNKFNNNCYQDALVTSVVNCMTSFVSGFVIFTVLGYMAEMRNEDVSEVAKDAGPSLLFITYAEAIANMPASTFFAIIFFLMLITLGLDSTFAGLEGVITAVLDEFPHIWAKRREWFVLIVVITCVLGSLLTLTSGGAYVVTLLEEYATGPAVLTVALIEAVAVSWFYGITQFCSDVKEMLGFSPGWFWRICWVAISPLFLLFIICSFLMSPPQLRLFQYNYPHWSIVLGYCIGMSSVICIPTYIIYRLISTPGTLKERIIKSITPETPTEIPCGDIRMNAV

What is called inhibition is the change of the read-out against control, counted positive when it falls. On to `COc1ccc(Br)c(CC2CCN(CCc3ccccc3)CC2)c1` [Example 11, N-phenethyl-4-(2-bromo-5-methoxybenzyl)-piperidine], for which the inhibition stood at 82% in test [1] and 96% in test [2]. In addition, in test [3], the “5-HT14 receptor actuating activity (%)” value is given as 32%.
On the same counts, the results for `COc1ccc(Br)c(CC2CCN(Cc3cccc(C(=O)NCc4ccccc4)c3)CC2)c1` [Example 12] are 100%, 98% and 19%.
On the same counts, the results for `NC(=O)c1cccc(CCN2CCC(Cc3ccccc3Br)CC2)c1` [Example 49] are 98%, 47% and 48%.
Consider `COc1ccc(Br)c(CC2CCN(CCc3cccc4ccccc34)CC2)c1` [Example 54, N-(2-(1-naphthyl)ethyl)-4-(2-bromo-5-methoxybenzyl)piperidine], for which the inhibition came to 73% in test [1] and 92% in test [2].
As to `COc1ccc(Cl)c(CC2CCN(CCCN3C(=O)c4ccccc4C3=O)CC2)c1` [Example 82, N-(3-phthaliminopropyl)-4-(2-chloro-5-methoxybenzyl)piperidine], the inhibition in test [1] turned out to be 100%; in test [2], 72%. The “5-HT14 receptor actuating activity (%)” value in test [3] is given as 49%.
`COc1ccc(Br)c(CC2CCN(CCc3cccnc3)CC2)c1` [Example 103, N-(2-(3-pyridyl)ethyl)-4-(2-bromo-5-methoxybenzyl)piperidine]: the inhibition in test [1] is 91%; in test [2], 94%. Further, the “5-HT14 receptor actuating activity (%)” value in test [3] was 52%.
On the same counts, the results for `CCOc1ccc(Br)c(CC2CCN(CCc3ccccc3Cl)CC2)c1` [Example 169, N-(2-(2-chlorophenyl)ethyl)-4-(2-bromo-5-ethoxybenzyl)piperidine] are 86%, 74% and 48%.
